Values quoted from earlier work as cited in US11304968B2, “Pharmaceutical compositions comprising a hydroxyethylquercetin glucuronide” (JANSSEN PHARMACEUTICA NV, priority 2018, dated 2022).

How the values were obtained:
[1] = human, in vivo, po
[2] = rat, in vivo, po
[3] = tested on: cortisol levels; conditions: depressed, stressed rats
[4] = tested on: anxiety and depressive behaviors in the offspring; conditions: pregnant rats fed a high fat diet
[5] = not given; remark: listed apart in the source
[6] = tested on: cortisol response; conditions: in vitro
[7] = humans, oral; baicalin 616 mg with baicalein 52.5 mg; wogonoside 117.2 mg with wogonin 32 mg
[8] = rat

For “mono-3′-O-hydroxyethyl quercetin-glucuronide [Mono-3′-O-HEQG]”, the “volunteers in whom the metabolite was detectable” value [1] is given as 13 of the 16 and the detectability as metabolite [2] is given as “not detectable”.

For `C[C@@H]1O[C@@H](OC[C@H]2O[C@@H](Oc3c(-c4ccc(OCCO)c(OCCO)c4)oc4cc(OCCO)cc(O)c4c3=O)[C@H](O)[C@@H](O)[C@@H]2O)[C@H](O)[C@H](O)[C@H]1O` [troxerutin, 7,3′,4′-trihydroxyethylrutoside], the “effect on cortisol levels” value [3] is listed as “decreased cortisol levels” and the “anxiety and depressive behaviors in the offspring” value [4] is listed as “reduced anxiety and depressive behaviors in the offspring”.

In the case of `O=C(O)[C@H]1O[C@@H](Oc2cc3oc(-c4ccc(O)cc4)cc(=O)c3c(O)c2O)[C@H](O)[C@@H](O)[C@@H]1O` [scutellarin], the solubility in water is given as “poorly soluble in water” and the pKa [5] is given as “about 2.7”.

In the case of `C[C@@H]1O[C@@H](OC[C@H]2O[C@@H](Oc3c(-c4ccc(O)c(O)c4)oc4cc(OCCO)cc(O)c4c3=O)[C@H](O)[C@@H](O)[C@@H]2O)[C@H](O)[C@H](O)[C@H]1O` [MonoHER, 7-monohydroxyethylrutoside], the “effect on cortisol response and cortisol resistance” value [6] is given as “protects the proper cortisol response and decreases cortisol resistance”.

In the case of `O=C(O)[C@H]1O[C@@H](Oc2cc3oc(-c4ccccc4)cc(=O)c3c(O)c2O)[C@H](O)[C@@H](O)[C@@H]1O` [baicalin], the solubility in water is given as “poorly soluble in water”, the “urinary COV of metabolites” value [7] is given as “about 10%” and the site of absorption [8] is given as “preferentially absorbs in the rat stomach”.
